Patent publication US12649980B2, “Three-dimensional surface for protein and small molecule microarrays” (The Johns Hopkins University, priority 2019, dated 2026)

Assays:
A549 cells = experiment: [3H]-2DG uptake assay in A549 cells; assay type: cell-based, human; settings: 10 min incubation with compound, mean ± s.d., n = 3
Procedure: (§1) To determine which of the 17 rapafucin hits inhibited the transporter activity of GLUT1, an orthogonal glucose uptake assay using 2-deoxy-D-[3H] glucose ([3H]-2DG), a nonhydrolyzable, radioactive glucose analog, was employed. Each hit was separately incubated with A549 cells for 10 min before the amount of [3H]-2DG taken up by the cells was measured using scintillation counting. […] The effect of JW11-D2 on uptake of [3H]-2DG in human red blood cells that exclusively express GLUT1 was then determined. Helgerson and Carruthers, J. Biol. Chem. 1987, 262, 5464-5475. […] To further improve the potency of JW11-D2, a structure-activity relationship (SAR) study was performed by synthesizing 21 new analogs of JW11-D2 using different amino acid building blocks.
(§2) The inhibitory activity of compounds on glucose transport was analyzed by measuring the cell uptake of [3H]-2DG as previously described. Ulanovskaya et al., Chem. Biol. 2011, 18, 222-230. Briefly, cells were washed twice and incubated in low-glucose medium for 10 min. Cells were added drugs and incubated for another 10 min before adding [3H]-2DG. After 10 min incubation with [3H]-2DG, cells were washed twice and lysed with 0.2 N NaOH plus 0.2% SDS. The cell lysate was transferred to a new tube containing 1 mL of optiphase supermix. Glucose uptake was quantified with a scintillation counter.

HeLa = experiment: [3H]-2DG uptake assay in HeLa cells; assay type: cell-based, human
Procedure: Hay, Nat. Rev. […] To determine whether RgA could inhibit glucose uptake in cancer cell lines in addition to A549, the impact of RgA on [3H]-2DG uptake in six other cancer cell lines, including HCC1954, MCF-7, PANC10.05, Jurkat T, HeLa, and RKO was measured (FIG. 3A, Table 3).
as §2

A549 = experiment: Alamar blue cell proliferation assay, A549; assay type: cell-based, human; settings: A549, 72 h; read-out: IC50 Assay B (Alamar blue cell proliferation)
Procedure: (§3) The effects of RgA on cell growth, survival, and cell death was then determined. […] Treatment with 5 μM of RgA caused an increase in G1 phase by approximately 23% in comparison to control and approximately 7% and 17% decreases in cells in S and G2/M phases, respectively. The induction in G1 phase cell cycle arrest by RgA is dose-dependent (FIG. 5A, FIG. 16). […] Jones and Thompson, Genes Dev. 2009, 23, 537-548. […] The IC50 values of RgA against several human cancer cell lines also was determined using the alamar blue cell proliferation assay.
(§4) Cells were seeded into a 96-well plate (Costar) in 180 μL culture media. After an overnight recovery, drugs were added and incubated for 72 h. After drug incubation, cells were added with 20 μL of alamar blue reagent and the plates were incubated at 37° C. for 6 h before reading the fluorescence (544 nm Ex/590 nm Em) with a plate reader. GraphPad Prism (v4.03) software was used to determine IC50 values using a four parameter logistic regression.

Jurkat T = experiment: Alamar blue cell proliferation assay, Jurkat T; assay type: cell-based, human; settings: 72 h, read-out: IC50 Assay B (Alamar blue cell proliferation)
Procedure: as §3, §4

RKO = experiment: Alamar blue cell proliferation assay, RKO; assay type: cell-based, human; settings: 72 h, read-out: IC50 Assay B (Alamar blue cell proliferation)
Procedure: as §3, §4

DLD1 GLUT1 KO = experiment: [3H]-2DG uptake in DLD1 GLUT1 knockout cells; assay type: cell-based
Procedure: as §2

FKBP12 = FKBP12 (Homo sapiens, UniProt P62942); experiment: peptidyl prolyl cis-trans isomerase activity inhibition, FKBP12; assay type: biochemical; settings: inhibition of prolyl isomerase activity
FKSP13 = FKSP13 (Homo sapiens, UniProt P26885); experiment: peptidyl prolyl cis-trans isomerase activity inhibition, FKSP13; assay type: biochemical; settings: inhibition of prolyl isomerase activity
[1] = test system: sealed erythrocyte membranes; experiment: [3H]-2DG uptake in purified sealed erythrocyte membranes; assay type: cell-based, human; settings: read-out: IC50 [3H]-2DG uptake into sealed erythrocyte membranes
Procedure: as §1

MCF-7 cells [2] = experiment: LC/MS metabolite profiling of MCF-7 cells; assay type: cell-based, human
Procedure: To understand the metabolic impact of GLUT inhibition by RgA, the steady-state levels of 272 metabolites was determined using LC/MS, Liu et al, Anal. Chem. 2014, 86, 2175-2184, in MCF-7 cells upon treatment with RgA for 30 min and 6 h, respectively.
MCF-7 Cells were seeded into 6-well plate at a density of 5×10^5 cells per well, allowed to recover overnight and subsequently treated with RgA or vehicle control for 30 min and 6 h, respectively. Metabolites were extracted and analyzed as previously described. Liu et al., Anal. Chem. 2014, 86, 2175-2184.

MCF-7 cells [3] = experiment: cell cycle analysis of MCF-7 cells; assay type: cell-based, human; settings: MCF-7, 5 μM, 24 h
Procedure: as §3
MCF-7 cells were seeded at 5×10^5 cells/15 cm dish, allowed to recover overnight and subsequently treated with drugs or vehicle control for 24 h. Media was then collected and set aside. Cells were washed with PBS, trypsinized, combined with set aside media, pelleted at 500×g and then washed with 10 mL PBS followed by another 500×g spin. The pellet was resuspended in 0.5 mL PBS and added dropwise using a Pasteur pipette to 2 mL 75% ethanol in a 5 mL polystyrene tube being slowly agitated by a vortex. The cells were stored at 4° C. until staining. To do so, cells were pelleted at 500×g, resuspended in 5 mL PBS, rested for 60 seconds, pelleted again and washed by 5 mL PBS. The cell pellet was then resuspended in 0.5 mL staining solution (0.1% Triton-X-100, 0.2 mg/mL DNase free RNase A, and 0.02 mg/mL propidium iodide). Cells were allowed to stain for 30 min prior for analysis. Propidium iodide incorporation was measured using a FACSCalibur. The percentage of cells in each cell cycle stage was determined with FlowJo (v7.5.5) using a Watson analysis.

PARP and caspase 7 = experiment: Western blot of apoptosis markers in MCF-7 cells; assay type: cell-based, human; settings: MCF-7, 5 μM, 72 h; inhibited by Z-VAD
Procedure: as §3
For western blot analysis, cells were harvested and lysed by RIPA buffer plus protease inhibitor. Cell lysates or samples from pull-down experiment were subjected to SDS/PAGE and then transferred to a nitrocellulose membrane. Membranes were first blocked in 5% (wt/vol) BSA in Tris-buffered saline plus 0.1% Tween 20 (TBST) at room temperature for 30 min and incubated with primary antibodies at 4° C. for overnight. Membranes were then washed three times with TBST and incubated with secondary antibodies at room temperature for another 1 h. Membranes were washed with TBST three times again and incubated with ECL substrate for 1 min at room temperature. Pictures were captured using a GeneSys Image Station.

[4] = MCF-7, 30 min and 6 h treatment

Sequence of FKSP13 (P26885 22-142): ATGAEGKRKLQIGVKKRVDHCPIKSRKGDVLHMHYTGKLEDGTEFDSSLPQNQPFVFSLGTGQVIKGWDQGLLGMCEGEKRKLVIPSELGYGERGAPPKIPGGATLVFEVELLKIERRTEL
Sequence of FKBP12 (P62942 whole entry, species assumed): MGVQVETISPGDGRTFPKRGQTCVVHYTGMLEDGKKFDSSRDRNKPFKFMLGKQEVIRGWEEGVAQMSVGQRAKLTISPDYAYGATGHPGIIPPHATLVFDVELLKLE

Compound: CCC(C)C1C(=O)NCC(=O)N(C)CCC=CC(=O)OCC(C)(C)C(=O)C(=O)N2CCCCC2C(=O)OC(CCc2ccc(OC)c(OC)c2)c2cccc(c2)NC(=O)CCC(=O)N(C)C(CC(C)C)C(=O)NC(Cc2ccccc2)C(=O)N1C (centres unmarked) [JW11-D2, Rapaglutin A]
- IC50 (A549 cells): 0.0116 µM
- IC50 (HeLa): 0.0189 µM
- IC50 (A549): 0.189 µM
- IC50 (Jurkat T): 0.132 µM
- IC50 (RKO): 0.115 µM
- EC50 (DLD1 GLUT1 KO; DLD1 GLUT1 knockout): 0.0271 ± 0.0036 µM
- inhibitory activity in GLUT1 knock out cells (DLD1 GLUT1 KO; DLD-1 GLUT1 knock out versus wild type): retained its inhibitory activity
- Ki (FKBP12): 0.0015 µM
- Ki (FKSP13): 0.539 ± 0.207 µM
- IC50 [1]: 0.0495 µM
- cellular ATP level and AMP/ATP ratio (MCF-7 cells [2]; MCF-7): increase in the AMP/ATP ratio
- TCA cycle and redox status (MCF-7 cells [2]; [4]): not significantly affected
- upper glycolytic and pentose phosphate pathway intermediates (G6P, F1,6-BP, DHAP, 6PGA, R5P, E4P) (MCF-7 cells [2]; [4]): significant decreases
- decrease in cells in G2/M phase (MCF-7 cells [3]): ~17%
- decrease in cells in S phase (MCF-7 cells [3]): approximately 7%
- increase in G1 phase in comparison to control (MCF-7 cells [3]): approximately 23%
- PARP and caspase 7 cleavage (apoptosis) (PARP and caspase 7): resulted in poly(ADP-ribose) polymerase (PARP) and caspase 7 cleavage
